Laboratory results published in US12577228B2, “Dihydrocyclopenta-isoquinoline-sulfonamide derivatives compounds” (UCB Biopharma SRL, priority 2019, dated 2026).
Counter-ions that a name gives are not always drawn.

The compounds below were run against T1, IgE-Tb / soluble IgE receptor FcεRIα with a Y131A mutation (Homo sapiens, UniProt P01854, N146Q/N252Q) (assay: in vitro FRET assay: binding of IgE-Tb to receptor FcεRIα-Y131A-AF488 and its inhibition by compounds). Conditions: 5 nM IgE-Tb, 25 nM FcεRIα-Y131A-AF488, 2 hours at room temperature; read-out: FRET IC50 range.
T1 construct: fused on or other part: Terbium chelate (LanthaScreen amine-reactive) on IgE-Fc; Alexa Fluor 488 hydrazide on the oxidised glycans of sFcεRIα; Both are labels and no part of the key
T1 sequence (P01854 104-427 N146Q/N252Q): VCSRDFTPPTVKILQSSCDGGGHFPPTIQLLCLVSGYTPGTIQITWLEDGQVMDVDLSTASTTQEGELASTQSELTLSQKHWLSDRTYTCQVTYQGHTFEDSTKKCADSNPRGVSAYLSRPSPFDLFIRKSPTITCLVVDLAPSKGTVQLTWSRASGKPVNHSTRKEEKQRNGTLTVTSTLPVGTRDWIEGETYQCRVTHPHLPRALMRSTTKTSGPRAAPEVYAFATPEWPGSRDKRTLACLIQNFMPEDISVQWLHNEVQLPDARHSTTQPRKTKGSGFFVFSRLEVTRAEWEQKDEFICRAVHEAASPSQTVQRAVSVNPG
T1 sequence (P12319 26-201 Y156A partner): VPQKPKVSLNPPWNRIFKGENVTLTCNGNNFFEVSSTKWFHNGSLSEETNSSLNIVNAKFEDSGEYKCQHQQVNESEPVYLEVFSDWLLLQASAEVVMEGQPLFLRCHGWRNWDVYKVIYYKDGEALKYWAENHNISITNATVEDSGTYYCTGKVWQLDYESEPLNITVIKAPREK
`CC(C)(F)CNS(=O)(=O)c1c2c(cc3cnc(C4CC4)cc13)C[C@@H](Nc1cncc(Oc3cc[nH]c(=O)c3)c1)C2` [Example 75, (7R)-3-cyclopropyl-N-(2-fluoro-2-methylpropyl)-7-[[5-[(2-oxo-1H-pyridin-4-yl)oxy]pyridin-3-yl]amino]-7,8-dihydro-6H-cyclopenta[g]isoquinoline-5-sulfonamide] was tested, and the IC50 was 10 to 50 nM. In the case of `Cc1ncsc1C(=O)N[C@@H]1Cc2cc3cnc(C4CC4)cc3c(S(=O)(=O)NCC(C)(C)F)c2C1` [Example 134, N-[(7R)-3-cyclopropyl-5-[(2-fluoro-2-methylpropyl)sulfamoyl]-7,8-dihydro-6H-cyclopenta[g]isoquinolin-7-yl]-4-methyl-1,3-thiazole-5-carboxamide], the IC50 is reported as 100 to 2000 nM. `CC(C)CNS(=O)(=O)c1c2c(cc3cnc(C4CC4)cc13)CC(NC1=CC(=O)CC1)C2` (centres unmarked) [Example 4, 3-cyclopropyl-N-(2-methylpropyl)-7-[(3-oxocyclopenten-1-yl)amino]-7,8-dihydro-6H-cyclopenta[g]isoquinoline-5-sulfonamide] showed an IC50 of 10 to 50 nM. Work on `CC(C)CNS(=O)(=O)c1c2c(cc3cnc(C4CC4)cc13)CNC2` [Example 60, 7-cyclopropyl-N-(2-methylpropyl)-2,3-dihydro-1H-pyrrolo[3,4-g]isoquinoline-9-sulfonamide] yielded an IC50 of 100 to 2000 nM. `Cn1ccc(-c2ccc(N[C@@H]3Cc4cc5cnc(C6CC6)cc5c(S(=O)(=O)NCC(C)(C)F)c4C3)cn2)n1` [Example 108, (7R)-3-cyclopropyl-N-(2-fluoro-2-methylpropyl)-7-[[6-(1-methylpyrazol-3-yl)pyridin-3-yl]amino]-7,8-dihydro-6H-cyclopenta[g]isoquinoline-5-sulfonamide] showed an IC50 of 10 to 50 nM. In the case of `CC(C)(F)CNS(=O)(=O)c1c2c(cc3cnc(C4CC4)cc13)CC1(COC(=O)N1)C2` (centres unmarked) [Example 49, 3′-cyclopropyl-N-(2-fluoro-2-methylpropyl)-2-oxospiro[1,3-oxazolidine-4,7′-6,8-dihydrocyclopenta[g]isoquinoline]-5′-sulfonamide], the IC50 is reported as 100 to 2000 nM. `Cn1cc(C(=O)C(=O)N[C@@H]2Cc3cc4cnc(C5CC5)cc4c(S(=O)(=O)NCC(C)(C)F)c3C2)cn1` [Example 137, N-[(7R)-3-cyclopropyl-5-[(2-fluoro-2-methylpropyl)sulfamoyl]-7,8-dihydro-6H-cyclopenta[g]isoquinolin-7-yl]-2-(1-methylpyrazol-4-yl)-2-oxoacetamide] gave an IC50 of 100 to 2000 nM. `CCNC(=O)N1Cc2cc3cnc(C4CC4)cc3c(S(=O)(=O)NCC(C)C)c2C1` [Example 100, 7-cyclopropyl-N-ethyl-9-(2-methylpropylsulfamoyl)-1,3-dihydropyrrolo[3,4-g]isoquinoline-2-carboxamide] was tested, and the IC50 was 100 to 2000 nM. Work on `CCOC(=O)c1nnc(N[C@@H]2Cc3cc4cnc(C5CC5)cc4c(S(=O)(=O)NCC(C)(C)F)c3C2)s1` [Example 64, ethyl 5-[[(7R)-3-cyclopropyl-5-[(2-fluoro-2-methylpropyl)sulfamoyl]-7,8-dihydro-6H-cyclopenta[g]isoquinolin-7-yl]amino]-1,3,4-thiadiazole-2-carboxylate] yielded an IC50 of 10 to 50 nM. Compound `CC(C)(F)CNS(=O)(=O)c1c2c(cc3cnc(C4CC4)cc13)C[C@@H](NC(=O)c1c[nH]c3ccccc13)C2` [Example 130, N-[(7R)-3-cyclopropyl-5-[(2-fluoro-2-methylpropyl)sulfamoyl]-7,8-dihydro-6H-cyclopenta[g]isoquinolin-7-yl]-1H-indole-3-carboxamide] has an IC50 of 10 to 50 nM. With `CC(C)(F)CNS(=O)(=O)c1c2c(cc3cnc(C4CC4)cc13)C[C@@H](NC(=O)c1ccc3c(c1)CN(C(=O)OC(C)(C)C)C3)C2` [Example 136, tert-butyl 5-[[(7R)-3-cyclopropyl-5-[(2-fluoro-2-methylpropyl)sulfamoyl]-7,8-dihydro-6H-cyclopenta[g]isoquinolin-7-yl]carbamoyl]-1,3-dihydroisoindole-2-carboxylate] the IC50 was 10 to 50 nM. `CC(C)(F)CNS(=O)(=O)c1c2c(cc3cnc(C4CC4)cc13)CC(Nc1cncnc1Nc1cccnc1)C2` (centres unmarked) [Example 18, 3-cyclopropyl-N-(2-fluoro-2-methylpropyl)-7-[[4-(pyridin-3-ylamino)pyrimidin-5-yl]amino]-7,8-dihydro-6H-cyclopenta[g]isoquinoline-5-sulfonamide] was tested, and the IC50 was 1 to 10 nM. In the case of `CC(C)CNS(=O)(=O)c1c2c(cc3cnc(C4CC4)cc13)CC(Nc1ccnnc1)C2` (centres unmarked) [Example 103, 3-cyclopropyl-N-isobutyl-7-(pyridazin-4-ylamino)-7,8-dihydro-6H-cyclopenta[g]isoquinoline-5-sulfonamide; formic acid], the IC50 is reported as 10 to 50 nM. Compound `COc1nc(C2CC2)cc2c(S(=O)(=O)NCC(C)(C)F)c3c(cc12)CC(Nc1ccc(C2(O)COC2)nc1)C3` (centres unmarked) [Example 26, 3-cyclopropyl-N-(2-fluoro-2-methylpropyl)-7-[[6-(3-hydroxyoxetan-3-yl)pyridin-3-yl]amino]-1-methoxy-7,8-dihydro-6H-cyclopenta[g]isoquinoline-5-sulfonamide] has an IC50 of 100 to 2000 nM. With `Cc1nnc(-c2ccc(NC3Cc4cc5nnc(C6CC6)cc5c(S(=O)(=O)NCC(C)(C)F)c4C3)cn2)o1` (centres unmarked) [Example 66, 3-cyclopropyl-N-(2-fluoro-2-methylpropyl)-7-[[6-(5-methyl-1,3,4-oxadiazol-2-yl)pyridin-3-yl]amino]-7,8-dihydro-6H-cyclopenta[g]cinnoline-5-sulfonamide] the IC50 was 10 to 50 nM. In the case of `O=c1cc(C2Cc3cc4cnc(C5CC5)cc4c(S(=O)(=O)NC4CC(F)(F)C4)c3C2)[nH]n1-c1cccnc1` (centres unmarked) [Example 111, 3-cyclopropyl-N-(3,3-difluorocyclobutyl)-7-(3-oxo-2-pyridin-3-yl-1H-pyrazol-5-yl)-7,8-dihydro-6H-cyclopenta[g]isoquinoline-5-sulfonamide], the IC50 is reported as 100 to 2000 nM. `COc1ccc(NC2Cc3cc4cnc(C5CC5)cc4c(S(=O)(=O)NCC(C)(C)F)c3C2)nn1` (centres unmarked) [Example 28, 3-cyclopropyl-N-(2-fluoro-2-methylpropyl)-7-[(6-methoxypyridazin-3-yl)amino]-7,8-dihydro-6H-cyclopenta[g]isoquinoline-5-sulfonamide] showed an IC50 of 10 to 50 nM. `CC(C)(F)CNS(=O)(=O)c1c2c(cc3cnc(C4CC4)cc13)C[C@@H](Nc1ccc(C(F)F)nc1)C2` [Example 118, (7R)-3-cyclopropyl-7-[[6-(difluoromethyl)pyridin-3-yl]amino]-N-(2-fluoro-2-methylpropyl)-7,8-dihydro-6H-cyclopenta[g]isoquinoline-5-sulfonamide] was tested, and the IC50 was 10 to 50 nM. For `CC(C)(F)CNS(=O)(=O)c1c2c(cc3cnc(C4CC4)cc13)C[C@@H](Nc1ccc(CO)nc1)C2` [Example 12, (7R)-3-cyclopropyl-N-(2-fluoro-2-methylpropyl)-7-[[6-(hydroxymethyl)pyridin-3-yl]amino]-7,8-dihydro-6H-cyclopenta[g]isoquinoline-5-sulfonamide], the IC50 was 10 to 50 nM. `CC(C)CNS(=O)(=O)c1c2c(cc3cnc(C4CC4)cc13)CC(Nc1ccc(C(=O)O)nc1)C2` (centres unmarked) [Example 88, 5-[[3-cyclopropyl-5-(isobutylsulfamoyl)-7,8-dihydro-6H-cyclopenta[g]isoquinolin-7-yl]amino]pyridine-2-carboxylic acid; hydrochloride] gave an IC50 of 50 to 100 nM. Compound `O=C(O)c1ccc(NC2Cc3cc4cnc(C5CC5)cc4c(S(=O)(=O)NC4CC(F)(F)C4)c3C2)cn1` (centres unmarked) [Example 89, 5-[[3-cyclopropyl-5-[(3,3-difluorocyclobutyl)sulfamoyl]-7,8-dihydro-6H-cyclopenta[g]isoquinolin-7-yl]amino]pyridine-2-carboxylic acid] has an IC50 of 100 to 2000 nM. Compound `CCNC(=O)NC1Cc2cc3cnc(C4CC4)cc3c(S(=O)(=O)NCC(C)C)c2C1` (centres unmarked) [Example 44, 1-[3-cyclopropyl-5-(2-methylpropylsulfamoyl)-7,8-dihydro-6H-cyclopenta[g]isoquinolin-7-yl]-3-ethylurea] has an IC50 of 10 to 50 nM. `CC(C)(F)CNS(=O)(=O)c1c2c(cc3cnc(C4CC4)cc13)C[C@@H](Nc1cncnc1OC1CCOCC1)C2` [Example 120, (7R)-3-cyclopropyl-N-(2-fluoro-2-methylpropyl)-7-[[4-(oxan-4-yloxy)pyrimidin-5-yl]amino]-7,8-dihydro-6H-cyclopenta[g]isoquinoline-5-sulfonamide] was tested, and the IC50 was 50 to 100 nM. For `CC(C)(F)CNS(=O)(=O)c1c2c(cc3cnc(C4CC4)cc13)CC(Nc1cncc(C#N)c1)C2` (centres unmarked) [Example 122, 7-[(5-cyanopyridin-3-yl)amino]-3-cyclopropyl-N-(2-fluoro-2-methylpropyl)-7,8-dihydro-6H-cyclopenta[g]isoquinoline-5-sulfonamide], the IC50 was 100 to 2000 nM. `Cc1ccc2c(C(=O)N[C@@H]3Cc4cc5cnc(C6CC6)cc5c(S(=O)(=O)NCC(C)(C)F)c4C3)c[nH]c2c1` [Example 33, N-[(7R)-3-cyclopropyl-5-[(2-fluoro-2-methylpropyl)sulfamoyl]-7,8-dihydro-6H-cyclopenta[g]isoquinolin-7-yl]-6-methyl-1H-indole-3-carboxamide] was tested, and the IC50 was 10 to 50 nM. Work on `CC(C)(F)CNS(=O)(=O)c1c2c(cc3cnc(C4CC4)cc13)C[C@H](n1cnc(C(N)=O)c1N)C2` [Example 90, 5-amino-1-[(7S)-3-cyclopropyl-5-[(2-fluoro-2-methylpropyl)sulfamoyl]-7,8-dihydro-6H-cyclopenta[g]isoquinolin-7-yl]imidazole-4-carboxamide] yielded an IC50 of 100 to 2000 nM. For `CC(C)CNS(=O)(=O)c1c2c(cc3cnc(C4CC4)cc13)OCO2` [Example 68, 7-cyclopropyl-N-(2-methylpropyl)-[1,3]dioxolo[4,5-g]isoquinoline-9-sulfonamide], the IC50 was 100 to 2000 nM. `CC(C)CNS(=O)(=O)c1c2c(c(N)c3cnc(C4CC4)cc13)CCC2` [Example 21, 9-amino-3-cyclopropyl-N-(2-methylpropyl)-7,8-dihydro-6H-cyclopenta[g]isoquinoline-5-sulfonamide] was tested, and the IC50 was 50 to 100 nM. `CC(C)(F)CNS(=O)(=O)c1c2c(cc3cnc(C4CC4)cc13)CC(Nc1cncc3[nH]ncc13)C2` (centres unmarked) [Example 83, 3-cyclopropyl-N-(2-fluoro-2-methyl-propyl)-7-(1H-pyrazolo[3,4-c]pyridin-4-ylamino)-7,8-dihydro-6H-cyclopenta[g]isoquinoline-5-sulfonamide, formate salt] showed an IC50 of 10 to 50 nM.
